Among the data in patent US6413517B1, “Identification of broadly reactive DR restricted epitopes” (Epimmune, Inc., priority 1997, dated 2002) are IC50 values, retold here.

One assay concerns the target T1, DRB5*0101 (DR2w2a) (Homo sapiens, UniProt P01903+Q30154).
T1 construct: Epstein-Barr virus (EBV) transformed homozygous cell lines were used as sources; endogenous in cells; host or cells: GM3107 (EBV-transformed homozygous B cell line)
Put plainly: biochemical. The assay is classed as binding. The settings on record: Binding Capacity (IC 50% nM) Other Alleles DR2w2a.

The next assay has as its target T2, DRB1*0401 (DR4w4) (Homo sapiens, UniProt P01903+P01911, A100K/A169T/F76Y/I96L/K127E/L162R/M171V/N62H/P40V/Q125Y/R42H/S133A/S149N/S66Y/V115G/V209L/W38E).
T2 construct: Epstein-Barr virus (EBV) transformed homozygous cell lines were used as sources; endogenous in cells; host or cells: PREISS (EBV-transformed homozygous B cell line)
Put plainly: biochemical. It is filed as binding.

In assay [1] the target is T3, DRB1*0301 (DR3w17) (Homo sapiens, UniProt P01903+P01911, A100K/A102G/A103R/A169T/F55Y/I96L/K41T/L162R/M171V/P40S/Q125H/Q178H/Q39Y/R42S/S66N/T106N/T262R/W38E/Y61H). The settings on record: read-out: Binding Capacity (IC 50% nM) Other Alleles DR3.
Another assay has as its target T4, DRB1*0901 (DR9) (Homo sapiens, UniProt P01903+P01911, A100R/A103E/D57H/D86V/F55Y/F60I/F76Y/I96F/K127E/L162R/M171V/P40D/Q125H/Q99R/R33Q/R42F/S133A/S66N/T210M/V115G/W38K/Y107V/Y59G/Y89S).
T4 construct: Epstein-Barr virus (EBV) transformed homozygous cell lines were used as sources; endogenous in cells
Briefly: biochemical. The assay is classed as binding.

Assay [2] deals with T3, DRB1*0301 (DR3w17). Briefly: biochemical. Particulars: Binding Capacity (IC50% nM) DR3.
Another assay deals with T5, DRB1*0701 (DR7) (Homo sapiens, UniProt P01903+P01911, A100R/A102G/A103Q/D57E/D86V/E43K/F76Y/K127E/L162R/M171V/P40G/Q125H/Q99D/R33Q/R42Y/R54Q/S133A/S66F/T210M/V115G/Y107V/Y59L/Y89S).
T5 construct: Epstein-Barr virus (EBV) transformed homozygous cell lines were used as sources; endogenous in cells; host or cells: PITOUT (EBV-transformed homozygous B cell line)
Briefly: biochemical. It is filed as binding.

Another assay has as its target T6, DRB1*0405 (DR4w15) (Homo sapiens, UniProt P01903+P01911, A100R/A169T/D86S/F76Y/I96L/K127E/L162R/M171V/N62H/P40V/Q125Y/R42H/S133A/S149N/S66Y/V115G/V209L/W38E).
T6 construct: Epstein-Barr virus (EBV) transformed homozygous cell lines were used as sources; endogenous in cells; host or cells: KT3 (EBV-transformed homozygous B cell line)
Briefly: biochemical. It is filed as binding. The settings on record: Binding Capacity (IC 50% nM) Other Alleles DR4w15.

The target of the next assay is T7, DRB1*0802 (DR8w2) (Homo sapiens, UniProt P01903+P01911, A100R/A103L/A169T/F76Y/H45Y/I96F/K41T/L162R/M171V/P40S/Q125H/Q178H/Q39Y/Q99D/R218S/R42G/S66Y/V115G/W38E).
T7 construct: Epstein-Barr virus (EBV) transformed homozygous cell lines were used as sources; endogenous in cells; host or cells: OLL (EBV-transformed homozygous B cell line)
Briefly: biochemical. The assay is classed as binding.

A further assay has as its target T8, DRB1*1101 (DR5w11) (Homo sapiens, UniProt P01903+P01911, A100R/A169T/A87E/I96F/K41T/L162R/M171V/P40S/Q125H/Q178H/Q39Y/Q99D/R42S/S66Y/T262R/V115G/W38E).
T8 construct: Epstein-Barr virus (EBV) transformed homozygous cell lines were used as sources; endogenous in cells; host or cells: SWEIG (EBV-transformed homozygous B cell line)
Briefly: biochemical. It is filed as binding.

The target in another assay is T9, DRB1*1501 (DR2w2b) (Homo sapiens, UniProt P01903+P01911).
T9 construct: expressed in transfected cells; host or cells: transfected fibroblasts L466.1
Put plainly: biochemical. It is filed as binding.

For a further assay, the target named is T10, DRB1*1201 (DR5w12) (Homo sapiens, UniProt P01903+P01911, A100R/A169T/D57E/D86V/F55L/H45Y/K41T/L162R/M171V/P40S/Q125H/Q178H/Q39Y/Q99D/R42G/S66L/T262R/V114A/V67L/W38E/Y59H/Y61H/Y89S).
T10 construct: Epstein-Barr virus (EBV) transformed homozygous cell lines were used as sources; endogenous in cells; host or cells: Herluf (EBV-transformed homozygous B cell line)
Briefly: biochemical. It is filed as binding.

For a further assay, the target named is T11, DRB1*0101 (DR1) (Homo sapiens, UniProt P01903+P01911, A100R/D57E/F55L/F60I/F76Y/I96L/L162R/M171V/P40L/Q125E/R42F/V115G/Y59C).
T11 construct: Epstein-Barr virus (EBV) transformed homozygous cell lines were used as sources; endogenous in cells; host or cells: LG2 (EBV-transformed homozygous B cell line)
Briefly: biochemical. The assay is classed as binding. The settings on record: Binding Capacity (IC 50% nM) DR1,4,7 DRB1.

Another assay addresses T12, DRB1*1302 (DR6w19) (Homo sapiens, UniProt P01903+P01911, A100E/A169T/K41T/L162R/M171V/P40S/Q125H/Q178H/Q39Y/Q99D/R42S/S66N/T262R/V115G/W38E/Y61H).
T12 construct: Epstein-Barr virus (EBV) transformed homozygous cell lines were used as sources; the source of Class II molecules the EBV transformed homozygous cell line H0301; endogenous in cells; host or cells: H0301 (EBV-transformed homozygous B cell line)
Briefly: biochemical. It is filed as binding.

The mark [3] stands for this setting: Binding Capacity (IC 50% nM) DR1,4,7 DR4w4.
The mark [4] stands for this setting: Binding Capacity (IC 50% nM) Other Alleles DR9.
The mark [5] stands for this setting: Binding Capacity (IC 50% nM) DR1,4,7 DR7.
Where [6] appears, read: read-out: Binding Capacity (IC 50% nM) Other Alleles DR5w11.
Where [7] appears, read: read-out: Binding Capacity (IC 50% nM) Other Alleles DR2w2b.
Where [8] appears, read: read-out: Binding Capacity (IC 50% nM) Other Alleles DR5w12.
The mark [9] stands for this setting: read-out: Binding Capacity (IC 50% nM) Other Alleles DR6w19.
The mark [10] stands for this setting: read-out: Binding Capacity (IC 50% nM) Other Alleles DR8w2.

Read-outs that look alike come from different tables or passages of the source.

T8 sequence (P01903 26-254, other chains not shown): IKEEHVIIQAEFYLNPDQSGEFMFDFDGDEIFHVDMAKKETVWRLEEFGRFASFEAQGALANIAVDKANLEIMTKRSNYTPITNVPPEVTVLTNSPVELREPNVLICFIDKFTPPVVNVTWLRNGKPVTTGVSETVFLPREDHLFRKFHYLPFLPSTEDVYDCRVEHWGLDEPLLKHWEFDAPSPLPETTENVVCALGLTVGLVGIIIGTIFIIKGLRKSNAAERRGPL

`CC(C)C[C@H](NC(=O)[C@H](Cc1c[nH]c2ccccc12)NC(=O)[C@@H](NC(=O)[C@H](Cc1ccccc1)NC(=O)[C@@H](NC(=O)[C@@H]1CCCN1C(=O)[C@H](CC(C)C)NC(=O)[C@H](C)NC(=O)[C@@H]1CCCN1C(=O)[C@H](CC(C)C)NC(=O)[C@H](Cc1ccccc1)NC(=O)[C@H](Cc1ccccc1)NC(=O)[C@H](CCC(N)=O)NC(=O)[C@H](CO)NC(=O)[C@@H](NC(=O)[C@@H](N)CC(C)C)[C@@H](C)O)C(C)C)[C@@H](C)O)C(=O)O` [Peptide 1136.16]: the IC50 on DRB5*0101 (DR2w2a) was less than 1000 nM; at DRB1*0401 (DR4w4) (setting [3]) it was less than 1000 nM; on DRB1*0301 (DR3w17) [1] it was greater than 1000 nM; on DRB1*0901 (DR9) (setting [4]), less than 1000 nM; on DRB1*0301 (DR3w17) [2], greater than 10000 nM; at DRB1*0701 (DR7) (setting [5]), less than 1000 nM. The IC50 at DRB1*0405 (DR4w15) is less than 1000 nM; at DRB1*0802 (DR8w2) (Binding Capacity (IC 50% nM) Other Alleles DR8w2), less than 1000 nM; at DRB1*1101 (DR5w11) (setting [6]), greater than 1000 nM; on DRB1*1501 (DR2w2b) (setting [7]) it was greater than 1000 nM; on DRB1*1201 (DR5w12) (setting [8]), greater than 1000 nM; at DRB1*0101 (DR1) it was less than 1000 nM. At DRB1*1302 (DR6w19) (setting [9]), the IC50 is greater than 1000 nM.
On to `CC[C@H](C)[C@H](N)C(=O)N1CCC[C@H]1C(=O)N[C@@H](CCC(N)=O)C(=O)N[C@@H](CCC(=O)O)C(=O)N[C@@H](Cc1c[nH]c2ccccc12)C(=O)N[C@@H](CCCCN)C(=O)N1CCC[C@H]1C(=O)N[C@@H](C)C(=O)N[C@H](C(=O)N[C@H](C(=O)N[C@H](C(=O)N[C@@H](CCCCN)C(=O)N[C@H](C(=O)N[C@@H](CC(C)C)C(=O)N1CCC[C@H]1C(=O)N[C@@H](C)C(=O)O)C(C)C)C(C)C)[C@@H](C)O)[C@@H](C)CC` [Peptide 1136.21], for which the IC50 at DRB5*0101 (DR2w2a) is less than 1000 nM; on DRB1*0401 (DR4w4) (setting [3]), less than 1000 nM; at DRB1*0301 (DR3w17) [1], greater than 1000 nM; at DRB1*0901 (DR9) (setting [4]), less than 1000 nM; on DRB1*0301 (DR3w17) [2] it was greater than 10000 nM; at DRB1*0701 (DR7) (setting [5]), less than 1000 nM. Also, the IC50 at DRB1*0405 (DR4w15) is less than 1000 nM; at DRB1*0802 (DR8w2) (setting [10]) it was greater than 1000 nM; at DRB1*1101 (DR5w11) (setting [6]), greater than 1000 nM; on DRB1*1501 (DR2w2b) (setting [7]) it was greater than 1000 nM; on DRB1*1201 (DR5w12) (Binding Capacity (IC50% nM) DR5w12) it was greater than 10000 nM; on DRB1*1201 (DR5w12) (setting [8]) it was greater than 1000 nM. Also, the IC50 on DRB1*0101 (DR1) was less than 1000 nM; at DRB1*1302 (DR6w19) (Binding Capacity (IC50% nM) DR6w19) it was 259 nM; at DRB1*1302 (DR6w19) (Binding Capacity (IC 50% nM) Other Alleles DR6w19) it was less than 1000 nM.
For the compound `CC[C@H](C)[C@H](NC(=O)[C@H](CC(C)C)NC(=O)[C@H](Cc1ccccc1)NC(=O)[C@H](CS)NC(=O)[C@@H](NC(=O)[C@H](C)NC(=O)[C@@H](N)Cc1ccccc1)[C@@H](C)O)C(=O)N1CCC[C@H]1C(=O)N[C@@H](CC(C)C)C(=O)N[C@H](C(=O)N[C@@H](CO)C(=O)N[C@@H](CCC(N)=O)C(=O)N[C@@H](Cc1ccccc1)C(=O)N[C@@H](Cc1ccccc1)C(=O)N[C@@H](CC(C)C)C(=O)N1CCC[C@H]1C(=O)O)[C@@H](C)O` [Peptide 1136.14], the IC50 was less than 1000 nM at DRB5*0101 (DR2w2a); greater than 1000 nM at DRB1*0401 (DR4w4) (read-out: Binding Capacity (IC 50% nM) DR1,4,7 DR4w4); greater than 1000 nM at DRB1*0301 (DR3w17) [1]; greater than 1000 nM on DRB1*0901 (DR9) (read-out: Binding Capacity (IC 50% nM) Other Alleles DR9); greater than 10000 nM on DRB1*0301 (DR3w17) [2]; less than 1000 nM at DRB1*0701 (DR7) (setting [5]). Further, the IC50 at DRB1*0701 (DR7) (Binding Capacity (IC50% nM) DR7) was 100 nM; at DRB1*0405 (DR4w15), less than 1000 nM; on DRB1*0802 (DR8w2) (Binding Capacity (IC50% nM) DR8w2), greater than 10000 nM; at DRB1*0802 (DR8w2) (setting [10]), greater than 1000 nM; on DRB1*1101 (DR5w11) (Binding Capacity (IC50% nM) DR5w11) it was greater than 10000 nM; on DRB1*1101 (DR5w11) (setting [6]), greater than 1000 nM. Also, the IC50 is less than 1000 nM on DRB1*1501 (DR2w2b) (Binding Capacity (IC 50% nM) Other Alleles DR2w2b), greater than 1000 nM at DRB1*1201 (DR5w12) (setting [8]), less than 1000 nM at DRB1*0101 (DR1) and greater than 1000 nM at DRB1*1302 (DR6w19) (setting [9]).
